Results: patent publication US9115102B2, “N-[2-hydroxycarbamoyl-2-(piperazinyl) ethyl] benzamide compounds, their preparation and their use as TACE inhibitors” (GALDERMA RESEARCH & DEVELOPMENT, priority 2009, dated 2015)

Assays:
[1] = biological target: TACE enzyme (Homo sapiens, UniProt P78536); test: Enzymatic test of TACE inhibition (fluorescent substrate); assay type: biochemical
[2] = biological target: MMP3 (Homo sapiens (Human), UniProt P08254); test: Selectivity test, MMP3; assay type: biochemical
[3] = biological target: ADAM10 (Homo sapiens (Human), UniProt O14672); test: Selectivity test, ADAM10; assay type: biochemical
[4] = biological target: MMP1 (Homo sapiens (Human), UniProt P03956); test: Selectivity test, MMP1; assay type: biochemical
[5] = biological target: MMP9 (Homo sapiens (Human), UniProt P14780); test: Selectivity test, MMP9; assay type: biochemical
[6] = biological target: ADAM9 (Homo sapiens (Human), UniProt Q13443); test: biochemical
[7] = enzymatic test, substrate 40 μM

Sequence of TACE enzyme (P78536 215-824 limits assumed): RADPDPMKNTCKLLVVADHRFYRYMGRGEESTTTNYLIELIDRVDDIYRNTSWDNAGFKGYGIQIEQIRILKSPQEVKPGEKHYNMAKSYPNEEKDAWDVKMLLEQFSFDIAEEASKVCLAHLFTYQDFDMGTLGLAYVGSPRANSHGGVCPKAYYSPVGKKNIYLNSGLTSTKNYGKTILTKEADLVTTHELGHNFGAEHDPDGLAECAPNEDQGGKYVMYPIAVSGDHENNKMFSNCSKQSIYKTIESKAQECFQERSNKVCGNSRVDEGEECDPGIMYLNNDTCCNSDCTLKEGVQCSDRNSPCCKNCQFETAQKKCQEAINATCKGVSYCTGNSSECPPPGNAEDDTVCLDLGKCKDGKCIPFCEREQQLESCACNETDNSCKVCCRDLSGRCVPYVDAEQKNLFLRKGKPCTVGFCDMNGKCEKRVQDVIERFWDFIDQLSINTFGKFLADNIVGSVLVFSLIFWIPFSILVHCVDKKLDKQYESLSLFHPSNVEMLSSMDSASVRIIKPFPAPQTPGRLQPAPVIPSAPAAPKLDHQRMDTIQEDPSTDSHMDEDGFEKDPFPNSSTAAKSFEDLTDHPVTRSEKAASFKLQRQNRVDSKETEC
Sequence of MMP1 (P03956 100-469): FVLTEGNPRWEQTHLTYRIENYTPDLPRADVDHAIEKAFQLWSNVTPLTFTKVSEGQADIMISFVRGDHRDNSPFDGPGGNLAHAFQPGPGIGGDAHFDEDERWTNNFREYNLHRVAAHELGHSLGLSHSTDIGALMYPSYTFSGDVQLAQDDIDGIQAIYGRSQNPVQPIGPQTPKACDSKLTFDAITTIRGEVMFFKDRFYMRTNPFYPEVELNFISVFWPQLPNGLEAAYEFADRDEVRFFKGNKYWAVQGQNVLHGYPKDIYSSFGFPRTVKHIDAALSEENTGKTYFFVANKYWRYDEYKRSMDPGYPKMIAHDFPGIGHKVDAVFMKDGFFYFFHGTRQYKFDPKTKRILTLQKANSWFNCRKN
Sequence of MMP3 (P08254 100-477): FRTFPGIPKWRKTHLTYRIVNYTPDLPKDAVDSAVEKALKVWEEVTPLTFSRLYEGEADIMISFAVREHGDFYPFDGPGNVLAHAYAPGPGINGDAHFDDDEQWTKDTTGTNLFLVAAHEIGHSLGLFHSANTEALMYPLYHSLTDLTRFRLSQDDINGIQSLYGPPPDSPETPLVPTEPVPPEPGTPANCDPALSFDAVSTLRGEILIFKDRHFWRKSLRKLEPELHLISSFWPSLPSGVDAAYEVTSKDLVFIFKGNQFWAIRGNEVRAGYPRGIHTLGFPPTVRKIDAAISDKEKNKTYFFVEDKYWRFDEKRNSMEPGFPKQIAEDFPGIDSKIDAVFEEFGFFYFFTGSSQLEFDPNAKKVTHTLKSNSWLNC
Sequence of MMP9 (P14780 94-707): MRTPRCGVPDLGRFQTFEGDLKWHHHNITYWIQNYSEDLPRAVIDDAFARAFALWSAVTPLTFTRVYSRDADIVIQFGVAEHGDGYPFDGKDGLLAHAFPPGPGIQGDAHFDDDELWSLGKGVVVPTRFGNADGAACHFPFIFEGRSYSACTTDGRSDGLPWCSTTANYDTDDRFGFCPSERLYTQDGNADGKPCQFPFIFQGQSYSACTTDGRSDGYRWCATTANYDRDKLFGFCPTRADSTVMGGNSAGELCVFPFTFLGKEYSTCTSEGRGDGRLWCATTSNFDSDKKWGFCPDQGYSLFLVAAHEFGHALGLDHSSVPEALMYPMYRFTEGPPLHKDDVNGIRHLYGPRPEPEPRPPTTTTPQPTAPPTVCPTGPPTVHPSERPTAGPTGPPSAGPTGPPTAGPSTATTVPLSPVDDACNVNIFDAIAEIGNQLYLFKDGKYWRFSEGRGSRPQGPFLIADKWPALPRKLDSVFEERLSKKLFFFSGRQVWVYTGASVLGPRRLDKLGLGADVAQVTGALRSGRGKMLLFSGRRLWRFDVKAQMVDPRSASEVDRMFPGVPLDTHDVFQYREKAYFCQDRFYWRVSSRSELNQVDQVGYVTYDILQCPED
Sequence of ADAM10 (O14672 214-748): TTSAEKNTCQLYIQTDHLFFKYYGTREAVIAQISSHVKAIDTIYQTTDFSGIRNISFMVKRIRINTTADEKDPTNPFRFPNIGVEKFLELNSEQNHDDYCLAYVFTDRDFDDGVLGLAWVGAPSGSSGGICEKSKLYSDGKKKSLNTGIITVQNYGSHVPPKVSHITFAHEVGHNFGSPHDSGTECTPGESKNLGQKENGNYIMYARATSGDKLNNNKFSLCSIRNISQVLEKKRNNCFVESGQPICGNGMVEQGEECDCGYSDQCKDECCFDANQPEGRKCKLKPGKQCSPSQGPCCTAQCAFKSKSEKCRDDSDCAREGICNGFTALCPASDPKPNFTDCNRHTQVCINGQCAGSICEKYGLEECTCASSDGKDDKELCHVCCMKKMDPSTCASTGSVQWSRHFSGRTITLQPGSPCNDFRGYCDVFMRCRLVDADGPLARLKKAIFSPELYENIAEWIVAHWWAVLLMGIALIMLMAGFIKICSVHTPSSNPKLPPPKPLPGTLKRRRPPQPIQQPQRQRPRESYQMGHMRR
Sequence of ADAM9 (Q13443 29-819): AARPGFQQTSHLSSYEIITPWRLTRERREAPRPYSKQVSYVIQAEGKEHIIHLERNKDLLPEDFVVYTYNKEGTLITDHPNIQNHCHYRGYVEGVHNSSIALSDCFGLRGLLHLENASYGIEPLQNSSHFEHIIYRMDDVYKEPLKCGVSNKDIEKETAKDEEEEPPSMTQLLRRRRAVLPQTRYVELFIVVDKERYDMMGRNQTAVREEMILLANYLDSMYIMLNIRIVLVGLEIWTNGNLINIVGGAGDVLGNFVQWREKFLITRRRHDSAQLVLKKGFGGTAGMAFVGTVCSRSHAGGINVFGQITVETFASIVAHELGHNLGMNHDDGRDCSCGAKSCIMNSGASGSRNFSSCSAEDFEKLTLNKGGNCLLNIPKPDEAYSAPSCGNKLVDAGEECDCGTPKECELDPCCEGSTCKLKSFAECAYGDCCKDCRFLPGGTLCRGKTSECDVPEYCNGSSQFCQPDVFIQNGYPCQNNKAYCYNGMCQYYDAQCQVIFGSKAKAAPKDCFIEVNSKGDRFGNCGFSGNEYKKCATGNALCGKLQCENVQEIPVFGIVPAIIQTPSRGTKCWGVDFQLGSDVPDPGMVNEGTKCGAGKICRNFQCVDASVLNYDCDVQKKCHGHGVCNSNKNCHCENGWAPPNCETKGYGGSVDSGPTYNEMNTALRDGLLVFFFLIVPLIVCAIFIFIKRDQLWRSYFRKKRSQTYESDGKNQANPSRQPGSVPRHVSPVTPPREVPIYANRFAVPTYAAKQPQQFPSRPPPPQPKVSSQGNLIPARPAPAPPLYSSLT

| % TACE inhibition at 10 μM [1] | IC50 [1, 7] | Structure (SMILES) | further results |
| --- | --- | --- | --- |
| 97% | 102 nM | Cc1cc(COc2ccc(C(=O)NC[C@@H](C(=O)NO)N3CCN(S(=O)(=O)C(C)C)CC3)cc2)c2ccccc2n1 [Example 23, N-{(S)-2-Hydroxycarbamoyl-2-[4-(propane-2-sulphonyl)piperazin-1-yl]ethyl}-4-(2-methylquinolin-4-ylmethoxy)benzamide] | – |
| 90% | 45 nM | CCN1CCN([C@@H](CNC(=O)c2ccc(OCc3cc(C)nc4ccccc34)cc2)C(=O)NO)CC1 [Example 25, N—[(S)-2-(4-Ethylpiperazin-1-yl)-2-hydroxycarbamoylethyl]-4-(2-methylquinolin-4-ylmethoxy)-benzamide] | – |
| 97% | 117 nM | CS(=O)(=O)N1CCN([C@@H](CNC(=O)c2ccc(OCc3ccc(C(F)(F)F)cc3)cc2)C(=O)NO)CC1 [Example 10, N—[(S)-2-hydroxycarbamoyl-2-(4-methane-sulphonylpiperazin-1-yl)ethyl]-4-(4-trifluoromethyl-benzyloxy)benzamide] | – |
| 98% | 70 nM | COc1ccc(COc2ccc(C(=O)NC[C@@H](C(=O)NO)N3CCN(S(C)(=O)=O)CC3)cc2)cc1 [Example 17, N—[(S)-2-Hydroxycarbamoyl-2-(4-methane-sulphonylpiperazin-1-yl)ethyl]-4-(4-methoxybenzyloxy)-benzamide] | – |
| 97% | 35 nM | CS(=O)(=O)N1CCN([C@@H](CNC(=O)c2ccc(OCC#CCO)cc2)C(=O)NO)CC1 [Example 16, 4-(4-Hydroxybut-2-ynyloxy)-N—[(S)-2-hydroxycarbamoyl-2-(4-methanesulphonylpiperazin-1-yl)-ethyl]benzamide] | – |
| 97% | 79 nM | Cc1cc(COc2ccc(C(=O)NC[C@@H](C(=O)NO)N3CCN(Cc4ccccc4)CC3)cc2)c2ccccc2n1 [Example 22, N—[(S)-2-(4-Benzylpiperazin-1-yl)-2-hydroxycarbamoylethyl]-4-(2-methylquinolin-4-yl-methoxy)benzamide] | – |
| 98% | 99 nM | CS(=O)(=O)N1CCN([C@@H](CNC(=O)c2ccc(OCc3ccncc3)cc2)C(=O)NO)CC1 [Example 18, N—[(S)-2-Hydroxycarbamoyl-2-(4-methane-sulphonylpiperazin-1-yl)ethyl]-4-(pyridin-4-ylmethoxy)-benzamide] | – |
| 100% | 160 nM | COc1ccc(C(=O)NC[C@@H](C(=O)NO)N2CCN(S(C)(=O)=O)CC2)cc1 [Example 4, N—[(S)-2-hydroxycarbamoyl-2-(4-methane-sulphonylpiperazin-1-yl)ethyl]-4-methoxybenzamide] | – |
| 100% | 28 nM | CC#CCOc1ccc(C(=O)NC[C@@H](C(=O)NO)N2CCN(S(C)(=O)=O)CC2)cc1 [Example 2, 4-But-2-ynyloxy-N—[(S)-2-hydroxycarbamoyl-2-(4-methanesulphonylpiperazin-1-yl)ethyl]benzamide] | IC50 [2]: 6.31 µM; IC50 [4]: > 10 µM; IC50 ([1]; selectivity table): 28 nM; IC50 [5]: > 10 µM |
| 100% | 200 nM | CS(=O)(=O)N1CCN([C@@H](CNC(=O)c2ccc(OCC3CC3)cc2)C(=O)NO)CC1 [Example 5, 4-cyclopropylmethoxy-N—[(S)-2-hydroxycarbamoyl-2-(4-methanesulphonylpiperazin-1-yl)ethyl]benzamide] | – |
| 98% | 21 nM | CS(=O)(=O)N1CCN([C@@H](CNC(=O)c2ccc(OCc3ccc(F)cc3)cc2)C(=O)NO)CC1 [Example 9, 4-(4-fluorobenzyloxy)-N—[(S)-2-hydroxycarbamoyl-2-(4-methanesulphonylpiperazin-1-yl)ethyl]benzamide] | – |
| 96% | 95 nM | Cc1ccc(COc2ccc(C(=O)NC[C@@H](C(=O)NO)N3CCN(S(C)(=O)=O)CC3)cc2)cc1 [Example 11, N—[(S)-2-hydroxycarbamoyl-2-(4-methane-sulphonylpiperazin-1-yl)ethyl]-4-(4-methylbenzyloxy)-benzamide] | – |
| 100% | 54 nM | CC#CCOc1ccc(C(=O)NC[C@@H](C(=O)NO)N2CCN(S(=O)(=O)c3ccc(C)cc3)CC2)cc1 [Example 8, 4-but-2-ynyloxy-N-{(S)-2-hydroxycarbamoyl-2-[4-(toluene-4-sulphonyl)piperazin-1-yl]ethyl}benzamide] | – |
| 96% | 118 nM | CS(=O)(=O)N1CCN([C@@H](CNC(=O)c2ccc(OCc3ccnc4ccccc34)cc2)C(=O)NO)CC1 [Example 21, N—[(S)-2-hydroxycarbamoyl-2-(4-methane-sulphonylpiperazin-1-yl)ethyl]-4-(quinolin-4-ylmethoxy)benzamide] | – |
| 90% | 138 nM | Cc1ccc2ccccc2c1COc1ccc(C(=O)NC[C@@H](C(=O)NO)N2CCN(S(C)(=O)=O)CC2)cc1 [Example 19, N—[(S)-2-Hydroxycarbamoyl-2-(4-methane-sulphonylpiperazin-1-yl)ethyl]-4-(2-methylnaphthalen-1-ylmethoxy)benzamide] | – |
| 100% | 40 nM | CS(=O)(=O)N1CCN([C@@H](CNC(=O)c2ccc(OCc3ccccc3)cc2)C(=O)NO)CC1 [Example 6, 4-benzyloxy-N—[(S)-2-hydroxycarbamoyl-2-(4-methanesulphonylpiperazin-1-yl)ethyl]benzamide] | – |
| 98% | 22 nM | CC#CCOc1ccc(C(=O)N(C)C[C@@H](C(=O)NO)N2CCN(S(C)(=O)=O)CC2)cc1 [Example 13, 4-But-2-ynyloxy-N—[(S)-2-hydroxycarbamoyl-2-(4-methanesulphonylpiperazin-1-yl)ethyl]-N-methylbenzamide] | – |
| 100% | 32 nM | CC#CCOc1ccc(C(=O)NCC(C(=O)NO)N2CCN(S(C)(=O)=O)CC2)cc1 (stereo not drawn) [Example 1, 4-But-2-ynyloxy-N-[2-hydroxycarbamoyl-2-(4-methanesulphonylpiperazin-1-yl)ethyl]benzamide] | – |
| 95% | – | O=C(NCC(C(=O)NO)N1CCN(Cc2ccccc2)CC1)c1ccc(OCc2c(C(F)(F)F)nn3ccccc23)cc1 (stereo not drawn) [Example 27, N-[2-(4-Benzylpiperazin-1-yl)-2-hydroxycarbamoylethyl]-4-(2-trifluoromethylpyrazolo[1,5-a]pyridin-3-ylmethoxy)benzamide] | IC50 [2]: > 10 µM; IC50 [6]: > 10 µM; IC50 [3]: > 10 µM; IC50 [4]: > 10 µM; IC50 [5]: > 10 µM |

| Structure (SMILES) | % TACE inhibition at 10 μM [1] | IC50 [1, 7] | further results |
| --- | --- | --- | --- |
| Cc1cc(COc2ccc(C(=O)NC[C@@H](C(=O)NO)N3CCN(S(C)(=O)=O)CC3)cc2)c2ccccc2n1 [Example 14, N—[(S)-2-Hydroxycarbamoyl-2-(4-methane-sulphonylpiperazin-1-yl)ethyl]-4-(2-methylquinolin-4-ylmethoxy)benzamide] | 98% | – | IC50 [2]: 6.83 µM; IC50 [3]: 5.79 µM; IC50 [4]: 2.61 µM |
| Cc1cc(COc2ccc(C(=O)NC[C@@H](C(=O)NO)N3CCN(S(C)(=O)=O)CC3)cc2)c2ccccc2n1.Cl.Cl [Example 24, N—[(S)-2-Hydroxycarbamoyl-2-(4-methane-sulphonylpiperazin-1-yl)ethyl]-4-(2-methylquinolin-4-ylmethoxy)benzamide dihydrochloride] | 98% | – | – |
